Read-outs that look alike come from different tables or passages of the source.
Tests used:
HT-29 = assay: cells; conditions: for GI50: read-out: GI50 HT29; for CC50: read-out: LC50 HT29
Method in brief: (§1)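 Colorimetric SRB read (490 nm) on triplicate wells after 48 h at 37 °C, 5% CO2. Dose range 10 to 10^−8 μg/ml; 5×10^3 cells/well pre-attached 18 h.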

A-549 = assay: cells; conditions: for GI50: read-out: GI50 A549; for CC50: read-out: LC50 A549
Method in brief: as §1

LoVo = assay: cells; conditions: for GI50: read-out: LOVO GI50; for CC50: read-out: LOVO LC50
Method in brief: as §1

K-562 = assay: Inhibition of cells growth by colorimetric assay (SRB); conditions: for GI50: read-out: K562 GI50; for CC50: read-out: K562 LC50
Method in brief: as §1

LNCaP = assay: as above; conditions: for GI50: read-out: GI50 LNCAP; for CC50: read-out: LC50 LNCAP
Method in brief: as §1

IGROV-ET = assay: as above; conditions: for GI50: read-out: IGROV-ET GI50; for CC50: read-out: IGROV-ET LC50
Method in brief: as §1

PANC-1 = assay: as above; conditions: for GI50: read-out: PANC-1 GI50; for CC50: read-out: PANC-1 LC50
Method in brief: as §1

LoVo-Dox = assay: as above; conditions: for GI50: read-out: LOVO-DOX GI50; for CC50: read-out: LOVO-DOX LC50
Method in brief: as §1

HeLa = assay: as above; conditions: for GI50: read-out: HELA GI50; for CC50: read-out: HELA LC50
Method in brief: as §1

SK-MEL-28 = assay: as above; conditions: for GI50: read-out: GI50 MEL-28; for CC50: read-out: LC50 MEL-28
Method in brief: as §1

IGROV-1 = assay: as above; conditions: for GI50: read-out: IGROV GI50; for CC50: read-out: IGROV LC50
Method in brief: as §1

HeLa-APL = assay: as above; conditions: for GI50: read-out: HELA-APL GI50; for CC50: read-out: HELA-APL LC50
Method in brief: as §1

SK-BR-3 = assay: as above; conditions: for GI50: read-out: SK-BR3 GI50; for CC50: read-out: SK-BR3 LC50
Method in brief: as §1

DU-145 = assay: as above; conditions: for GI50: read-out: GI50 DU145; for CC50: read-out: LC50 DU145
Method in brief: as §1

SMILES: COc1c(C)cc2c(c1OC(=O)/C=C/c1ccccc1)[C@H]1N[C@@H](C2)[C@H](C#N)N2C1[C@@H]1SCC(NC(=O)C(F)(F)F)C(=O)OC[C@H]2c2c3c(c(C)c(OC(C)=O)c21)OCO3 (stereo partly drawn) [compound 34]
- GI50 (HT-29; Homo sapiens, HT-29, 48 h): 62 nM
- CC50 (HT-29; Homo sapiens, HT-29, 48 h): 1640 nM
- IC (TGI) (HT-29; Homo sapiens, HT-29, 48 h, read-out: TGI HT29): 165 nM
- GI50 (A-549; Homo sapiens, A549, 48 h): 55.3 nM
- CC50 (A-549; Homo sapiens, A549, 48 h): 611 nM
- IC (TGI) (A-549; Homo sapiens, A549, 48 h, read-out: TGI A549): 184 nM
- GI50 (LoVo; Homo sapiens, LoVo, 48 h): 28.7 nM
- CC50 (LoVo; Homo sapiens, LoVo, 48 h): 98.6 nM
- IC (TGI) (LoVo; Homo sapiens, LoVo, 48 h, read-out: LOVO TGI): 53.2 nM
- GI50 (K-562; Homo sapiens, K562, 48 h): 16.2 nM
- CC50 (K-562; Homo sapiens, K562, 48 h): 146 nM
- IC (TGI) (K-562; Homo sapiens, K562, 48 h, read-out: K562 TGI): 45 nM
- GI50 (LNCaP; Homo sapiens, LNCaP, 48 h): 22 nM
- CC50 (LNCaP; Homo sapiens, LNCaP, 48 h): 147 nM
- IC (TGI) (LNCaP; Homo sapiens, LNCaP, 48 h, read-out: TGI LNCAP): 52.1 nM
- GI50 (IGROV-ET; Homo sapiens, 48 h): 89.5 nM
- CC50 (IGROV-ET; Homo sapiens, 48 h): 860 nM
- IC (TGI) (IGROV-ET; Homo sapiens, 48 h, read-out: IGROV-ET TGI): 262 nM
- GI50 (PANC-1; Homo sapiens, PANC-1, 48 h): 51.1 nM
- CC50 (PANC-1; Homo sapiens, PANC-1, 48 h): 841 nM
- IC (TGI) (PANC-1; Homo sapiens, PANC-1, 48 h, read-out: PANC-1 TGI): 123 nM
- GI50 (LoVo-Dox; Homo sapiens, 48 h): 140 nM
- CC50 (LoVo-Dox; Homo sapiens, 48 h): 12000 nM
- IC (TGI) (LoVo-Dox; Homo sapiens, 48 h, read-out: LOVO-DOX TGI): 410 nM
- GI50 (HeLa; Homo sapiens, HeLa, 48 h): 33.5 nM
- CC50 (HeLa; Homo sapiens, HeLa, 48 h): 116 nM
- IC (TGI) (HeLa; Homo sapiens, HeLa, 48 h, read-out: HELA TGI): 62.4 nM
- GI50 (SK-MEL-28; Homo sapiens, SK-MEL-28, 48 h): 32.7 nM
- CC50 (SK-MEL-28; Homo sapiens, SK-MEL-28, 48 h): 111 nM
- IC (TGI) (SK-MEL-28; Homo sapiens, SK-MEL-28, 48 h, read-out: TGI MEL-28): 60.3 nM
- GI50 (IGROV-1; Homo sapiens, IGROV-1, 48 h): 29.2 nM
- CC50 (IGROV-1; Homo sapiens, IGROV-1, 48 h): 117 nM
- IC (TGI) (IGROV-1; Homo sapiens, IGROV-1, 48 h, read-out: IGROV TGI): 58.3 nM
- GI50 (HeLa-APL; Homo sapiens, 48 h): 33.9 nM
- CC50 (HeLa-APL; Homo sapiens, 48 h): 108 nM
- IC (TGI) (HeLa-APL; Homo sapiens, 48 h, read-out: HELA-APL TGI): 60.5 nM
- GI50 (SK-BR-3; Homo sapiens, SK-BR-3, 48 h): 12.7 nM
- CC50 (SK-BR-3; Homo sapiens, SK-BR-3, 48 h): 626 nM
- IC (TGI) (SK-BR-3; Homo sapiens, SK-BR-3, 48 h, read-out: SK-BR3 TGI): 70.1 nM
- GI50 (DU-145; Homo sapiens, DU-145, 48 h): 51.1 nM
- CC50 (DU-145; Homo sapiens, DU-145, 48 h): 53.7 nM
- IC (TGI) (DU-145; Homo sapiens, DU-145, 48 h, read-out: TGI DU145): 98.7 nM

SMILES: COc1c(C)cc2c(c1O)C1C3C4SCC(NC(C)=O)C(=O)OCC(c5c6c(c(C)c(OC(C)=O)c54)OCO6)N3C(C#N)C(C2)N1C(C)=O (stereo not drawn) [compound 35]
- TGI HT29 (HT-29; HT29, SRB, 48 hours exposure): 8.18E−06 Molar
- GI50 (HT-29; HT29, SRB, 48 hours exposure): 602 nM
- CC50 (HT-29; HT29, SRB, 48 hours exposure): 14400 nM
- TGI A549 (A-549; A549, SRB, 48 hours exposure): 5.96E−06 Molar
- GI50 (A-549; A549, SRB, 48 hours exposure): 2930 nM
- CC50 (A-549; A549, SRB, 48 hours exposure): 12100 nM
- LOVO TGI (LoVo; SRB assay, 48 hours exposure, LOVO, total growth inhibition): 2.14E−06 Molar
- GI50 (LoVo; SRB assay, 48 hours exposure, LOVO): 564 nM
- CC50 (LoVo; SRB assay, 48 hours exposure, LOVO, cell killing): 14400 nM
- K562 TGI (K-562; SRB assay, 48 hours exposure, K562, total growth inhibition): 1.13E−06 Molar
- GI50 (K-562; SRB assay, 48 hours exposure, K562): 193 nM
- CC50 (K-562; SRB assay, 48 hours exposure, K562, cell killing): 9770 nM
- TGI LNCAP (LNCaP; LNCAP, SRB, 48 hours exposure): 3.97E−07 Molar
- GI50 (LNCaP; LNCAP, SRB, 48 hours exposure): 189 nM
- CC50 (LNCaP; LNCAP, SRB, 48 hours exposure): 834 nM
- IGROV-ET TGI (IGROV-ET; SRB assay, 48 hours exposure, IGROV-ET, total growth inhibition): 6.35E−06 Molar
- GI50 (IGROV-ET; SRB assay, 48 hours exposure, IGROV-ET): 2300 nM
- CC50 (IGROV-ET; SRB assay, 48 hours exposure, IGROV-ET, cell killing): 14400 nM
- PANC-1 TGI (PANC-1; SRB assay, 48 hours exposure, PANC-1, total growth inhibition): 1.41E−06 Molar
- GI50 (PANC-1; SRB assay, 48 hours exposure, PANC-1): 471 nM
- CC50 (PANC-1; SRB assay, 48 hours exposure, PANC-1, cell killing): 14400 nM
- LOVO-DOX TGI (LoVo-Dox; SRB assay, 48 hours exposure, LOVO-DOX, total growth inhibition): 1.44E−05 Molar
- GI50 (LoVo-Dox; SRB assay, 48 hours exposure, LOVO-DOX): 5750 nM
- CC50 (LoVo-Dox; SRB assay, 48 hours exposure, LOVO-DOX, cell killing): 14400 nM
- HELA TGI (HeLa; SRB assay, 48 hours exposure, HELA, total growth inhibition): 8.37E−07 Molar
- GI50 (HeLa; SRB assay, 48 hours exposure, HELA): 396 nM
- CC50 (HeLa; SRB assay, 48 hours exposure, HELA, cell killing): 3390 nM
- TGI MEL-28 (SK-MEL-28; MEL-28, SRB, 48 hours exposure): 8.63E−07 Molar
- GI50 (SK-MEL-28; MEL-28, SRB, 48 hours exposure): 390 nM
- CC50 (SK-MEL-28; MEL-28, SRB, 48 hours exposure): 3190 nM
- IGROV TGI (IGROV-1; SRB assay, 48 hours exposure, IGROV, total growth inhibition): 1.69E−06 Molar
- GI50 (IGROV-1; SRB assay, 48 hours exposure, IGROV): 420 nM
- CC50 (IGROV-1; SRB assay, 48 hours exposure, IGROV, cell killing): 8630 nM
- HELA-APL TGI (HeLa-APL; SRB assay, 48 hours exposure, HELA-APL, total growth inhibition): 1.09E−06 Molar
- GI50 (HeLa-APL; SRB assay, 48 hours exposure, HELA-APL): 458 nM
- CC50 (HeLa-APL; SRB assay, 48 hours exposure, HELA-APL, cell killing): 5920 nM
- SK-BR3 TGI (SK-BR-3; SRB assay, 48 hours exposure, SK-BR3, total growth inhibition): 1.10E−06 Molar
- GI50 (SK-BR-3; SRB assay, 48 hours exposure, SK-BR3): 396 nM
- CC50 (SK-BR-3; SRB assay, 48 hours exposure, SK-BR3, cell killing): 9350 nM
- TGI DU145 (DU-145; DU145, SRB, 48 hours exposure): 1.20E−06 Molar
- GI50 (DU-145; DU145, SRB, 48 hours exposure): 570 nM
- CC50 (DU-145; DU145, SRB, 48 hours exposure): 10300 nM

— patent publication US7767659B2, “Synthesis of naturally occurring ecteinascidins and related compounds” (Pharma Mar, S.A., priority 2002, dated 2010)
